Data published in PMC9959096, “Selective α3β4 Nicotinic Acetylcholine Receptor Ligand as a Potential Tracer for Drug Addiction” (International Journal of Molecular Sciences, 2023).
Where two headings read alike, the source gives them in different places.

How the values were obtained:
human α3β4 nAChR [1] = biological target: T1, human α3β4 nAChR (Homo sapiens, UniProt P30926+P32297); settings: cited from earlier work; for Selectivity Ratios α4β2/α3β4 / Selectivity Ratios α7/α3β4: lead compounds, ratio of Ki values
T1 construct: expressed in transfected cells

human α7 nAChR [2] = biological target: T2, human α7 nAChR (Homo sapiens, UniProt P36544); design: method as in PMID 27774124; settings: lead compounds, ratio of Ki values; cited from earlier work
T2 construct: expressed in transfected cells

human α3β4 nAChR [3] = biological target: T1, human α3β4 nAChR; experiment: Competitive radioligand displacement binding assay, membranes of HEK293 cells stably transfected with human α3β4 nAChR; settings: for Selectivity Ratios α4β2/α3β4 / Selectivity Ratios α7/α3β4: ratio of Ki values; for Selectivity Ratios α7/α3β4: given as fold
human α7 nAChR [4] = biological target: T2, human α7 nAChR; experiment: Radioligand displacement binding assay, membranes of SH-SY5Y cells stably transfected with human α7 nAChR; settings: for Selectivity Ratios α4β2/α7: ratio of Ki values
human α4β2 nAChR = biological target: T3, human α4β2 nAChR (Homo sapiens, UniProt P17787+P43681); experiment: Competitive radioligand displacement binding assay, membranes of HEK293 cells stably transfected with human α4β2 nAChR
T3 construct: expressed in transfected cells

[5] = SH-SY5Y membranes, [3H]methyllycaconitine ~0.5 nM per table footnote, mean of two independent experiments, single values in brackets, read-out: Binding Affinity Ki α7

SMILES	Selectivity Ratios α4β2/α3β4 (human α3β4 nAChR [1])	Selectivity Ratios α7/α3β4 (human α3β4 nAChR [1])	Selectivity Ratios α4β2/α7 (human α7 nAChR [2])	Ki (human α3β4 nAChR [1]; selective α3β4 nAChR ligands)	Ki (human α3β4 nAChR [3])	Selectivity Ratios α4β2/α3β4 (human α3β4 nAChR [3])	Selectivity Ratios α7/α3β4 (human α3β4 nAChR [3])	Ki (human α7 nAChR [4]; [5])	Selectivity Ratios α4β2/α7 (human α7 nAChR [4])	Ki (human α4β2 nAChR)	melting point	Ki (human α7 nAChR [4])
Oc1ccc(-c2cn([C@@H]3CN4CCC3CC4)nn2)cc1 [(S)-QND8]	186	11.8	15.7	–	–	–	–	–	–	–	–	–
Fc1ccc(-c2cn([C@@H]3CN4CCC3CC4)nn2)cc1 [(S)-T1]	–	–	–	< 10 nM	–	–	–	–	–	–	–	–
Fc1cccc(-c2cn([C@@H]3CN4CCC3CC4)nn2)c1 [(S)-T2]	231	294	0.79	–	–	–	–	–	–	–	–	–
Oc1ccc(-c2cn([C@@H]3CN4CCC3CC4)nn2)cc1F [AK1, 2-Fluoro-4-(1-((1R,3S,4R)-quinuclidin-3-yl)-1H-1,2,3-triazol-4-yl)phenol]	–	–	–	–	2.28 nM	221	11.7	26.7 nM	18.9	504 nM	258 °C (dec.)	–
Oc1ccc(-c2cn([C@H]3CN4CCC3CC4)nn2)cc1F [AK2, 2-Fluoro-4-(1-((1S,3R,4S)-quinuclidin-3-yl)-1H-1,2,3-triazol-4-yl)phenol]	–	–	–	–	601 nM	9.95	0.01	4.49 nM	1331	5980 nM	275 °C (dec.)	–
Fc1cc(-c2cn([C@@H]3CN4CCC3CC4)nn2)ccc1OCc1ccccc1 [AK3, (1R,3S,4R)-3-(4-(4-(Benzyloxy)-3-fluorophenyl)-1H-1,2,3-triazol-1-yl)quinuclidine]	–	–	–	–	3.18 nM	56.6	3069	–	0.02	180 nM	173 to 175 °C	9760 nM
Fc1cc(-c2cn([C@H]3CN4CCC3CC4)nn2)ccc1OCc1ccccc1 [AK4, (1S,3R,4S)-3-(4-(4-(Benzyloxy)-3-fluorophenyl)-1H-1,2,3-triazol-1-yl)quinuclidine]	–	–	–	–	112 nM	37.3	0.48	53.6 nM	77.9	4180 nM	180 to 181 °C	–
